Experimental data reported in patent US11185531B2, “Arginine methyltransferase inhibitors and uses thereof” (Epizyme, Inc., priority 2013, dated 2021).

Target: T1, human PRMT6 (Homo sapiens, UniProt Q96LA8)
T1 construct: Flag-PRMT6-His was eluted with 200 ug/ml FLAG peptide in the same buffer; made in house; host or cells: HEK 293F cells (BacMam baculovirus, pFastBacMam)
Assay: PRMT6 Biochemical Assay (3H-SAM Flashplate, peptide substrate)
Details: 30 min preincubation
Excerpt: Peptide representative of human histone H4 residues 36-50 was synthesized with an N-terminal linker-affinity tag motif and a C-terminal amide cap by 21st Century Biochemicals. The peptide was purified by high-performance liquid chromatography (HPLC) to greater than 95% purity and confirmed by liquid chromatography mass spectrometry (LC-MS). The sequence was Biot-Ahx-[…]-amide and contained a monomethylated lysine at position 44 (SEQ ID NO:5).
Full-length human PRMT6 (NM_018137.2) transcript clone was amplified from an HEK 293 cDNA library, incorporating a flanking 5′ sequence encoding a FLAG tag ([…]) (SEQ ID NO:6) fused directly to Ser 2 of PRMT6 and a 3′ sequence encoding a hexa His sequence (HHHHHH) fused directly to Asp 375. The amplified gene was subcloned into pFastBacMam (Viva Biotech).
Column was washed with 20 mM imidazole in the same buffer and Flag-PRMT6-His was eluted with 150 mM imidazole. Pooled fractions were dialysed against buffer Ni-A and further purified by anti-flag M2 affinity chromatography. Flag-PRMT6-His was eluted with 200 ug/ml FLAG peptide in the same buffer. Pooled fractions were dialysed in 20 mM Tris, 150 mM NaCl, 10% glycerol and 5 mM 3-mercaptoethanol, pH 7.8. The purity of recovered protein was 95%.
General Procedure for PRMT6 Enzyme Assays on Peptide Substrates.
The assays were all performed in a buffer consisting of 20 mM Bicine (pH=7.6), 1 mM TCEP, 0.005% BSG, and 0.002% Tween 20, prepared on the day of use. Compounds in 100% DMSO (1 ul) were spotted into a polypropylene 384-well V-bottom plates (Greiner) using a Platemate Plus outfitted with a 384-channel head (Thermo Scientific). DMSO (1 ul) was added to Columns 11, 12, 23, 24, rows A-H for the maximum signal control and 1 ul of SAH, a known product and inhibitor of PRMT6, was added to columns 11, 12, 23, 24, rows I-P for the minimum signal control. A cocktail (40 ul) containing the PRMT6 enzyme was added by Multidrop Combi (Thermo-Fisher). The compounds were allowed to incubate with PRMT6 for 30 min at room temperature, then a cocktail (10 ul) containing SAM and peptide was added to initiate the reaction (final volume=51 ul). The final concentrations of the components were as follows: PRMT6 was 1 nM, ^3H-SAM was 200 nM, non-radiolabeled SAM was 250 nM, peptide was 75 nM, SAH in the minimum signal control wells was 1 mM, and the DMSO concentration was 2%. The assays were stopped by the addition of non-radiolabeled SAM (10 ul) to a final concentration of 400 uM, which dilutes the ^3H-SAM to a level where its incorporation into the peptide substrate is no longer detectable. 50 ul of the reaction in the 384-well polypropylene plate was then transferred to a 384-well Flashplate and the biotinylated peptides were allowed to bind to the streptavidin surface for at least 1 hour before being washed once with 0.1% Tween20 in a Biotek ELx405 plate washer. The plates were then read in a PerkinElmer TopCount plate reader to measure the quantity of ^3H-labeled peptide bound to the Flashplate surface, measured as disintegrations per minute (dpm) or alternatively, referred to as counts per minute (cpm).
Where dpm=disintegrations per minute, cmpd=signal in assay well, and min and max are the respective minimum and maximum signal controls.
Where top and bottom are the normally allowed to float, but may be fixed at 100 or 0 respectively in a 3-parameter fit. The Hill Coefficient normally allowed to float but may also be fixed at 1 in a 3-parameter fit. Y is the % inhibition and X is the compound concentration.

T1 sequence (Q96LA8 with tags, fused parts or gaps): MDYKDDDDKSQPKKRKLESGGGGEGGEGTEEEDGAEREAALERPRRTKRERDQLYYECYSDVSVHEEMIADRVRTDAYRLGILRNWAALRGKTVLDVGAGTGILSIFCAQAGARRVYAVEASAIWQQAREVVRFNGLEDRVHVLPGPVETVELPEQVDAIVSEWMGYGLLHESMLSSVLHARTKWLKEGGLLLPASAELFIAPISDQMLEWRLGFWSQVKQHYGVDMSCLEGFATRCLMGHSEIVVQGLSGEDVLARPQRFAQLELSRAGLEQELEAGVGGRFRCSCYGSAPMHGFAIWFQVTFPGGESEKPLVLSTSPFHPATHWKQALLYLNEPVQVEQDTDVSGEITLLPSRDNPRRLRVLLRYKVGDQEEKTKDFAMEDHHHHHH

Structure (SMILES)	IC50
CNCCN(C)Cc1c[nH]nc1C#Cc1cccc(OC)c1 [Compound 1]	< 100 nM
CNCCN(C)Cc1c[nH]nc1C#Cc1ccc(C(C)(C)C)cc1 [Compound 2]	< 100 nM
CNCCN(C)Cc1c[nH]nc1C#Cc1ccccc1 [Compound 3]	< 100 nM
CNCCN(C)Cc1c[nH]nc1C#Cc1ccc(F)cc1 [Compound 4]	< 100 nM
CNCCN(C)Cc1c[nH]nc1/C=C/c1ccc(-c2ccccc2)cc1 [Compound 5]	< 100 nM
CNCCN(C)Cc1c[nH]nc1/C=C/c1ccc(C(F)(F)F)cc1 [Compound 6]	< 100 nM
CNCCN(C)Cc1c[nH]nc1/C=C/c1ccc(OC)cc1 [Compound 7]	< 100 nM
Cc1ccc(/C=C/c2n[nH]cc2CN(C)CCN)cc1 [Compound 8]	< 100 nM
CN(CCN)Cc1c[nH]nc1C1=CCOCC1 [Compound 10]	101 to 1000 nM
COc1cc(/C=C/c2n[nH]cc2CN(C)CCN)cc(OC)c1 [Compound 11]	< 100 nM
CN(CCN)Cc1c[nH]nc1/C=C/c1ccc(F)cc1F [Compound 13]	< 100 nM
CN(CCN)Cc1c[nH]nc1/C=C/c1cc(C(F)(F)F)cc(C(F)(F)F)c1 [Compound 14]	101 to 1000 nM
CN(CCN)Cc1c[nH]nc1/C=C/c1cc(F)cc(F)c1 [Compound 15]	< 100 nM
CN(CCN)Cc1c[nH]nc1/C=C/c1cccc(C(F)(F)F)c1 [Compound 16]	101 to 1000 nM
COc1cccc(/C=C/c2n[nH]cc2CN(C)CCN)c1 [Compound 17]	< 100 nM
CN(CCN)Cc1c[nH]nc1/C=C/c1ccc(C(F)(F)F)cc1 [Compound 18]	< 100 nM
COC/C=C/c1n[nH]cc1CN(C)CCN [Compound 19]	101 to 1000 nM
CN(CCN)Cc1c[nH]nc1/C=C/c1cccc(F)c1 [Compound 20]	< 100 nM
CC(C)c1n[nH]cc1CN(C)CCN [Compound 21]	101 to 1000 nM
CN(CCN)Cc1c[nH]nc1C1CCCCC1 [Compound 22]	< 100 nM

Structure (SMILES)	IC50
CN(CCN)Cc1c[nH]nc1CCc1ccc(F)cc1 [Compound 23, N^1-((3-(4-fluorophenethyl)-1H-pyrazol-4-yl)methyl)-N^1-methylethane-1,2-diamine]	< 100 nM
CN(CCN)Cc1c[nH]nc1/C=C/Cc1ccccc1 [Compound 24]	101 to 1000 nM
CN(CCN)Cc1c[nH]nc1C1=CCCC1 [Compound 25]	101 to 1000 nM
CN(CCN)Cc1c[nH]nc1C1CCC1 [Compound 26]	101 to 1000 nM
CC(C)Cc1n[nH]cc1CN(C)CCN [Compound 28, N^1-((3-iso-butyl-1H-pyrazol-4-yl)methyl)-N^1-methylethane-1,2-diamine]	< 100 nM
CCCc1n[nH]cc1CN(C)CCN [Compound 29]	101 to 1000 nM
Cc1n[nH]cc1CN(C)CCN [Compound 30]	101 to 1000 nM
CN(CCN)Cc1c[nH]nc1C1CCCC1 [Compound 31]	3010 to 10000 nM
CNCCN(C)Cc1c[nH]nc1C1CCN(C(=O)Cc2ccccc2)CC1 [Compound 32]	< 100 nM
CN(CCN)Cc1n[nH]cc1C1CCCCC1 [Compound 33]	< 100 nM
CNCCN(C)Cc1c[nH]nc1C1CCN(C(=O)C(C)C)CC1 [Compound 34]	< 100 nM
CC1CCC(c2c[nH]nc2CN(C)CCN)CC1 (stereo not drawn) [Compound 35]	< 100 nM
CN(CCN)Cc1n[nH]cc1C1CCC(C)(C)CC1 [Compound 36]	< 100 nM
CC1CCC(c2n[nH]cc2CN(C)CCN)CC1 (stereo not drawn) [Compound 37, N^1-methyl-N^1-((3-(4-methylcyclohexyl)-1H-pyrazol-4-yl)methyl)ethane-1,2-diamine]	< 100 nM
CN(CCN)Cc1c[nH]nc1C1CCC(C)(C)CC1 [Compound 38, N^1-((3-(4,4-dimethylcyclohexyl)-1H-pyrazol-4-yl)methyl)-N^1-methylethane-1,2-diamine]	< 100 nM
CNCCN(C)Cc1c[nH]nc1C1CCN(CC(C)C)CC1 [Compound 39, N^1-((3-(1-isobutylpiperidin-4-yl)-1H-pyrazol-4-yl)methyl)-N^1,N^2-dimethylethane-1,2-diamine]	< 100 nM
CNCCN(C)Cc1c[nH]nc1C1CCN(C)CC1 [Compound 41]	< 100 nM
CNCCN(C)Cc1c[nH]nc1C1CCNCC1 [Compound 42]	< 100 nM
CN(CCN)Cc1n[nH]cc1C1CCC(N2CCOCC2)CC1 (stereo not drawn) [Compound 44, N^1-methyl-N^1-((4-(4-morpholinocyclohexyl)-1H-pyrazol-3-yl)methyl)ethane-1,2-diamine]	101 to 1000 nM
